# Molecular target: Tripeptidyl-peptidase 2 (Rattus norvegicus, UniProt Q64560)
# Test: Inhibitory activity against tripeptidyl peptidase II purified from rat liver
# Chain of Tripeptidyl-peptidase 2 (Q64560 whole entry): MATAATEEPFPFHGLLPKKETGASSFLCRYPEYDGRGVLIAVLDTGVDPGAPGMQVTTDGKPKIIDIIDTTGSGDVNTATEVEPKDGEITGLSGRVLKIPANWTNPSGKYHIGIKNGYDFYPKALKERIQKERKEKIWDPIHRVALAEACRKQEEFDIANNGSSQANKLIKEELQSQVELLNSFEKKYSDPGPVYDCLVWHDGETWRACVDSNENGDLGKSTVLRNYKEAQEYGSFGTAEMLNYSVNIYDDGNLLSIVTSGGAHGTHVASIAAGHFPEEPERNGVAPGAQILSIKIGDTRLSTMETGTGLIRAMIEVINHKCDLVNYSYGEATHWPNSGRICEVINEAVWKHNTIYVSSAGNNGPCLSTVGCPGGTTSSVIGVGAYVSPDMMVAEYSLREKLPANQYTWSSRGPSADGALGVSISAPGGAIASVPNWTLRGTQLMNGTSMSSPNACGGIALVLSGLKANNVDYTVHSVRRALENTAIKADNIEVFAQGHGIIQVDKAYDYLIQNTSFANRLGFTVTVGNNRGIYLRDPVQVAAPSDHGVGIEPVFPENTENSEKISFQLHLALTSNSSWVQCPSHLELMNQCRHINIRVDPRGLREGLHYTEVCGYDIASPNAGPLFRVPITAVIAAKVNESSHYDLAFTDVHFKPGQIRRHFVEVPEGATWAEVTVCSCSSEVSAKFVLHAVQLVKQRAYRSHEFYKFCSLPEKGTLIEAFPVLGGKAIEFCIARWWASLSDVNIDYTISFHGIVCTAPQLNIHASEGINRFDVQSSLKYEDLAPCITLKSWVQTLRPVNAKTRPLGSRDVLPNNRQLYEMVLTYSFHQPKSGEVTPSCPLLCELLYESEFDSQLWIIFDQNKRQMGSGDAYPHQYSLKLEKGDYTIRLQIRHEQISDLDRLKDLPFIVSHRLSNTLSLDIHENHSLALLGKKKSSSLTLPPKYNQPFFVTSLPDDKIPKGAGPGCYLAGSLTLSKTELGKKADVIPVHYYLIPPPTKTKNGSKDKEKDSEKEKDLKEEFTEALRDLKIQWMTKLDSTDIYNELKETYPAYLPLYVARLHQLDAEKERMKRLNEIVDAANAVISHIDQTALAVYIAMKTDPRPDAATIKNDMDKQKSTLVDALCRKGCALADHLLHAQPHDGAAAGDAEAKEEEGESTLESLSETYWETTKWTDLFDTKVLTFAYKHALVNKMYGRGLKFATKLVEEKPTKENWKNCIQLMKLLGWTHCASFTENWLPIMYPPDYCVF
row,IC50 [µM],Compound
1,> 10,CCCc1cnc([C@@H]2Cc3ccccc3N2C(C)=O)[nH]1
2,0.023,CC[C@H](N)C(=O)N1c2ccccc2C[C@H]1c1ncc(C)[nH]1
3,> 10,CCc1c[nH]c([C@@H]2Cc3ccccc3N2C(=O)[C@H](C)N)n1
4,> 10,CC[C@@H]1NC(=O)[C@@H]2Cc3ccccc3N2C1=O
